# Where two headings read alike, the source gives them in different places.
# How the values were obtained:
# [1] = target: T1, BtuFfluo W66Y (E.c. BtuF) (Escherichia coli, UniProt P37028, Q145C/W66Y); assay: Fluorescence quenching substrate binding assay with BtuFfluo, W66Y mutant; details: for Kd: BtuFfluo 5 nM, substrate 0.02 nM to 33 μM, 30 min at 10 °C, mean and S.E.M., n = 12
# T1 construct: His6; made in house
# Procedure: (§1) For binding assays BtuF was labeled at a cysteine residue in the backbone helix with fluorescein-5-maleimide (Thermo scientific 62245) as described previously. In brief, 50 to 100 μM BtuF Q145C (Invitrogen QuickChange) was labeled with a 10-fold molar excess of fluorescein-5-maleimide (BtuFfluo). The reaction was run over night at 4 °C in the presence of 1 mM TCEP to prevent oxidation and stopped with 5 mM β-mercaptoethanol. Excess label was removed by desalting with PD10 columns and the protein was further purified by size exclusion chromatography. Protein concentration was determined by Bradford assay using BSA for calibration and the labeling efficiency was determined by measuring the absorbance at 494 nm. The labeled protein was flash frozen in liquid nitrogen and stored at −80 °C until the day of use. Final storage buffer was 50 mM HEPES 7, 200 mM NaCl, 0.5 mM EDTA-NaOH 8 and 10% v/v Glycerol.
# (§2) The assay is based on monitoring the ligand-induced change in emission of fluorescein attached to BtuF (BtuFfluo). A similar approach has been used to determine the affinity of MBP for maltose in the presence of various sAB[40][41][42]. BtuFfluo at 5 nM was incubated with a range of substrate concentrations from 0.02 nM to 33 μM. After incubation for 30 min at 10 °C the fluorescence intensity was recorded at an excitation wavelength of 485 nm and emission at 528 nm. The maximum signal was recorded in the absence of substrate and decreased with increasing substrate concentration. The difference of the maximum intensity minus the signal at a certain substrate concentration was plotted against the substrate concentration. One site –specific binding in Prism GraphPad was used to fit the data for KD determination (GraphPad Prism version 6.04 for Windows, GraphPad Software, La Jolla California USA, www.graphpad.com”). Binding buffer composition was 50 mM Tris 7.5 and 200 mM NaCl.
# [2] = target: T2, wild type BtuCD-F (Escherichia coli, UniProt P06609+P37028); assay: In vitro substrate transport assay with liposome reconstituted BtuCD and wild type BtuF; type: biochemical
# T2 construct: His10 (N); made in house
# Procedure: (§3) BtuCD was expressed, purified and reconstituted as described previously with some modifications regarding buffer composition and reconstitution procedure. In brief, BtuCD with an N-terminal His10-tag on BtuC was purified by IMAC and desalted into a buffer of the following composition: 50 mM Tris 7.5, 500 mm NaCl, 0.5 mM EDTA-NaOH 8 and 0.1% w/v LDAO. Purified protein was used directly for reconstitution into liposomes consisting of E. coli Polar lipids and α-Phosphatidylcholine (3:1 weight ratio, Avanti Polar Lipids 100600 C and 840051 C). Liposomes were destabilized with 0.3% w/v Triton X-100 for 20 min at RT. Protein was added with a ratio of 50:1 LPR and incubated for 90 min at RT. Detergent was removed by BioBeads (40 mg/ml mixture) in 4 steps and proteoliposomes were stored at −80 °C until the day of experiment. The protein concentration within the liposomes was determined by Amido black protein assay using BSA for the calibration curve.
# The amount of right-side-in oriented BtuCD in liposomes was determined as described previously for ABC type II importer HmuUV with minor modifications. […] The amount of BtuFfluo associated with the liposomes was determined by measuring the fluorescence signal at an excitation wavelength of 485 nm and an emission wavelength of 516 nm. Unspecific BtuFfluo interaction with liposomes was measured using empty liposomes. […]
# [3] = target: T3, BtuFfluo W66R (E.c. BtuF) (Escherichia coli, UniProt P37028, Q145C/W66R); assay: Fluorescence quenching substrate binding assay with BtuFfluo, W66R mutant; details: for decrease in affinity compared to wt: W66R (arginine) versus wild type BtuF; for Kd: BtuFfluo 5 nM, substrate 0.02 nM to 33 μM, 30 min at 10 °C, mean and S.E.M., n = 9
# T3 construct: His6; made in house
# Procedure: as §1, §2
# [4] = target: T4, BtuFfluo W66A (E.c. BtuF) (Escherichia coli, UniProt P37028, Q145C/W66A); assay: Fluorescence quenching substrate binding assay with BtuFfluo, W66A mutant; details: BtuFfluo 5 nM, substrate 0.02 nM to 33 μM, 30 min at 10 °C, mean and S.E.M., n = 12
# T4 construct: His6; made in house
# Procedure: as §1, §2
# [5] = target: T5, BtuFfluo W66L (E.c. BtuF) (Escherichia coli, UniProt P37028, Q145C/W66L); assay: Fluorescence quenching substrate binding assay with BtuFfluo, W66L mutant; details: for Kd: BtuFfluo 5 nM, substrate 0.02 nM to 33 μM, 30 min at 10 °C, mean and S.E.M., n = 12
# T5 construct: His6; made in house
# Procedure: as §1, §2
# [6] = target: T6, BtuFfluo W66H (E.c. BtuF) (Escherichia coli, UniProt P37028, Q145C/W66H); assay: Fluorescence quenching substrate binding assay with BtuFfluo, W66H mutant; details: for Kd: BtuFfluo 5 nM, substrate 0.02 nM to 33 μM, 30 min at 10 °C, mean and S.E.M., n = 12
# T6 construct: His6; made in house
# Procedure: as §1, §2
# [7] = target: T7, BtuFfluo W66F (E.c. BtuF) (Escherichia coli, UniProt P37028, Q145C/W66F); assay: Fluorescence quenching substrate binding assay with BtuFfluo, W66F mutant; details: BtuFfluo 5 nM, substrate 0.02 nM to 33 μM, 30 min at 10 °C, mean and S.E.M., n = 12
# T7 construct: His6; made in house
# Procedure: as §1
# The assay is based on monitoring the ligand-induced change in emission of fluorescein attached to BtuF (BtuFfluo). A similar approach has been used to determine the affinity of MBP for maltose in the presence of various sAB[40][41][42]. […] After incubation for 30 min at 10 °C the fluorescence intensity was recorded at an excitation wavelength of 485 nm and emission at 528 nm. The maximum signal was recorded in the absence of substrate and decreased with increasing substrate concentration. […]
# [8] = target: T8, BtuFfluo W66E (E.c. BtuF) (Escherichia coli, UniProt P37028, Q145C/W66E); assay: Fluorescence quenching substrate binding assay with BtuFfluo, W66E mutant
# T8 construct: His6; made in house
# Procedure: as §1, §2
# [9] = test system: wild type BtuCD with BtuF W66 mutants (W66A, W66R, W66E, W66F); assay: In vitro substrate transport assay with liposome reconstituted wild type BtuCD and BtuF W66 mutants; type: biochemical, Escherichia coli; details: 4 mg/ml proteoliposomes (~0.5 μM total BtuCD), 1 μM BtuF, 2 mM ATP, 15 μM cobinamide or cyanocobalamin
# Procedure: as §3
# The amount of right-side-in oriented BtuCD in liposomes was determined as described previously for ABC type II importer HmuUV with minor modifications. Briefly, liposome-reconstituted BtuCD was incubated with 1 μM fluorescently labeled BtuF (BtuFfluo) for 30 min at RT followed by a spin to remove excess BtuFfluo. The pellet was washed and resuspended at 1.25 mg/ml liposome concentration. The amount of BtuFfluo associated with the liposomes was determined by measuring the fluorescence signal at an excitation wavelength of 485 nm and an emission wavelength of 516 nm. Unspecific BtuFfluo interaction with liposomes was measured using empty liposomes.
# For the substrate transport assays radiolabeled ^14C-cyano-aquo-cobinamide (^14CN-Cbi, labeled in house) or ^57Co-cyanocobalamin (^57Co-Cbl, MP Biomedicals 06B-430000, 10.5 uCi) was used. […] The radioactivity trapped on the filters was measured either by a β counter using LCS in case of ^14CN-Cbi or a γ counter in case of ^57Co-Cbl. Initial transport rates were determined by using linear regression in PrismGraphpad.
# [10] = target: T9, wild type BtuFfluo (E.c. BtuF) (Escherichia coli, UniProt P37028, Q145C); assay: Fluorescence quenching substrate binding assay with BtuFfluo, wild type; details: BtuFfluo 5 nM, substrate 0.02 nM to 33 μM, 30 min at 10 °C, mean and S.E.M., n = 12
# T9 construct: His6; made in house
# Procedure: as §1, §2
# T4 sequence (P37028 23-266 W66A/Q145C): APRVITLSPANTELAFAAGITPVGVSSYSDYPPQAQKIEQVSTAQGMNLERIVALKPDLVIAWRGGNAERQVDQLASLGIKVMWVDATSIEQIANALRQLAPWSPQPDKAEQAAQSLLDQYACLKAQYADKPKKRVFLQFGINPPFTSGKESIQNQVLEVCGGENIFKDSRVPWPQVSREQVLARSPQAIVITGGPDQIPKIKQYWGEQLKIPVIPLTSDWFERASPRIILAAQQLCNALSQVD
# T5 sequence (P37028 23-266 W66L/Q145C): as the sequence (P37028 23-266 W66A/Q145C) above, with A44L counted along it
# T1 sequence (P37028 23-266 W66Y/Q145C): as the sequence (P37028 23-266 W66A/Q145C) above, with A44Y counted along it
# T9 sequence (P37028 23-266 Q145C): as the sequence (P37028 23-266 W66A/Q145C) above, with A44W counted along it
# T6 sequence (P37028 23-266 W66H/Q145C): as the sequence (P37028 23-266 W66A/Q145C) above, with A44H counted along it
# T8 sequence (P37028 23-266 W66E/Q145C): as the sequence (P37028 23-266 W66A/Q145C) above, with A44E counted along it
# T3 sequence (P37028 23-266 W66R/Q145C): as the sequence (P37028 23-266 W66A/Q145C) above, with A44R counted along it
# T7 sequence (P37028 23-266 W66F/Q145C): as the sequence (P37028 23-266 W66A/Q145C) above, with A44F counted along it
# T2 sequence (P06609 whole entry): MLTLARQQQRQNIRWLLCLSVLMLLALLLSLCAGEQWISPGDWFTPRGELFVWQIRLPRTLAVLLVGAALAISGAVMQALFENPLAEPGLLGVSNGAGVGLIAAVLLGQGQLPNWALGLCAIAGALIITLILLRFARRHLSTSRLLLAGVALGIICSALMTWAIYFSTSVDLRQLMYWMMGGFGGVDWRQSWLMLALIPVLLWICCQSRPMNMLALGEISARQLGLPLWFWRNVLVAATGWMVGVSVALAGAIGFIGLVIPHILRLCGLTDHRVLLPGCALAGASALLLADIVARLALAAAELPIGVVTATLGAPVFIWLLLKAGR
# T2 sequence (P37028 23-266): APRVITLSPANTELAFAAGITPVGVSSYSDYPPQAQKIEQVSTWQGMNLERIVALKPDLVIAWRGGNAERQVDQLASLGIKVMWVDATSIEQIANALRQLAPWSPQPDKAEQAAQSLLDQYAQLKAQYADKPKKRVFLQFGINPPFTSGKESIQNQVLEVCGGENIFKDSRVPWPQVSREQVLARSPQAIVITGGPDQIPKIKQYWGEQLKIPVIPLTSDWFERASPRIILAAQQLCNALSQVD
# T2 sequence (P06611 whole entry, further chain): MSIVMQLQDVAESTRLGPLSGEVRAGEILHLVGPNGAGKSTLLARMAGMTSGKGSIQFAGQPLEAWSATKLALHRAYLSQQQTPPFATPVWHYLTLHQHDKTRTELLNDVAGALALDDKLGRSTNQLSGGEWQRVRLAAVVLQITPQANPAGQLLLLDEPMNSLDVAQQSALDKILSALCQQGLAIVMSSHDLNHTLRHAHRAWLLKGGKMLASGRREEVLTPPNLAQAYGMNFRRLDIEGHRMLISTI
compound,measurement,setting,value
"C/C1=C2/[N-][C@H]([C@H](CC(N)=O)[C@@]2(C)CCC(=O)NC[C@@H](C)O)[C@]2(C)N=C(/C(C)=C3N=C(/C=C4N=C1[C@@H](CCC(N)=O)C\4(C)C)[C@@H](CCC(N)=O)[C@]\3(C)CC(N)=O)[C@@H](CCC(N)=O)[C@]2(C)CC(N)=O.[Co+3] [Cbi, cobinamide]",reduced affinity compared to wt,[1]; W66Y (tyrosine) versus wild type BtuF,3 fold
same,Kd,"[1]; di-CN-Cbi, read-out: KD of Cbi",150 ± 30 nM
same,initial transport rate,"[2]; 14CN-Cbi, 4 mg/ml proteoliposomes (~0.5 μM total BtuCD), 1 μM BtuF, 15 μM cobinamide, 2 mM ATP, 22 °C, corrected for right-side-in oriented transporters, mean ± S.E.M., n = 6",0.7 ± 0.2 nmol Cbi/mg protein/min
same,"in vitro turnover number for Cbi transport, slower than that of Cbl transport","[2]; calculated, Cbi versus Cbl transport by wild type BtuCD-F",approximately 1.5 fold
same,decrease in affinity compared to wt,[3],more than 10 fold
same,Kd,"[3]; di-CN-Cbi, read-out: KD of Cbi",800 ± 200 nM
same,KD of Cbi,[4]; di-CN-Cbi,low micromolar range
same,Kd,"[4]; di-CN-Cbi, read-out: KD of Cbi",1800 ± 800 nM
same,reduced affinity compared to wt,[5]; W66L (leucine) versus wild type BtuF,3 fold
same,Kd,"[5]; di-CN-Cbi, read-out: KD of Cbi",120 ± 20 nM
same,reduced affinity compared to wt,[6]; W66H (histidine) versus wild type BtuF,more than 10 fold
same,Kd,"[6]; di-CN-Cbi, read-out: KD of Cbi",500 ± 100 nM
same,Kd,"[7]; di-CN-Cbi, read-out: KD of Cbi",30 ± 7 nM
same,KD of Cbi,"[8]; di-CN-Cbi, BtuFfluo 5 nM, substrate 0.02 nM to 33 μM, 30 min at 10 °C, mean and S.E.M., n = 12",low micromolar range
same,Kd,"[8]; di-CN-Cbi, BtuFfluo 5 nM, substrate 0.02 nM to 33 μM, 30 min at 10 °C, mean and S.E.M., n = 12, read-out: KD of Cbi",2900 ± 800 nM
same,effect of BtuF W66X substitution on in vitro transport rate,[9],hardly affected
same,effect of BtuF W66X substitution on in vitro transport rate,[9]; listed as cobinamide,not influenced
same,Kd,"[10]; di-CN-Cbi, read-out: KD of Cbi",40 ± 10 nM
cyanocobalamin [Cbl],Kd,"[1]; CN-Cbl, read-out: KD of Cbl",5.7 ± 1.7 nM
same,Kd,"[3]; CN-Cbl, read-out: KD of Cbl",68 ± 13 nM
same,decrease in affinity compared to wt,[3],~ 7 fold
same,Kd,"[4]; CN-Cbl, read-out: KD of Cbl",14 ± 4 nM
same,Kd,"[5]; CN-Cbl, read-out: KD of Cbl",15 ± 2 nM
same,Kd,"[6]; CN-Cbl, read-out: KD of Cbl",5.5 ± 1.7 nM
same,Kd,"[7]; CN-Cbl, read-out: KD of Cbl",8 ± 1.9 nM
same,Kd,"[8]; CN-Cbl, BtuFfluo 5 nM, substrate 0.02 nM to 33 μM, 30 min at 10 °C, mean and S.E.M., n = 12, read-out: KD of Cbl",57 ± 15 nM
same,decrease in affinity compared to wt,[8]; W66E (glutamate) versus wild type BtuF,~ 7 fold
same,effect of BtuF W66X substitution on in vitro transport rate,[9],not influenced
same,KD of Cbl,[10]; CN-Cbl,low nM range
same,Kd,"[10]; CN-Cbl, read-out: KD of Cbl",9.1 ± 2.6 nM
